viability, T/C and IC50 data for nine compounds are collected here from PubChem BioAssay AID1918953 (Molecular Pharmacology Branch, DTP, NCI, 2023).

This assay has as its system MDA-MB-231 complex spheroid viability. The assay is described as follows: Anticancer human tumor MDA-MB-231/ATCC cell line growth inhibition.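 For all read-outs here: drug exposure lasted 7 days starting on day 3 of spheroid growth.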 The settings on record: for viability, T/C: stronger effect = lower value; for IC50: curve of compound. The text has this: Multicellular complex tumor spheroid response to LSD1 Inhibitor Iadademstat in combination with a variety of drugs and investigational agents in selected tumor cell lines
The current study was undertaken to assess response to LSD1 inhibitors in combination with standard-of-care drugs and investigational agents in solid tumor complex spheroid models as well as in the K-562 leukemia. Complex spheroids include a stromal component modeled by human endothelial cells (HUVEC) and fibroblasts modeled by human mesenchymal stem cells (MSCs). The concentration ranges selected for each drug and investigational agent were based upon clinically achievable concentrations if the clinical Cmax of the agent was known.
Compounds. The drugs and investigational agents used in this study are listed on Table 1. All of the agents used, including staurosporine (NSC755774) and gemcitabine (NSC613327), were obtained from the Developmental Therapeutics Program, NCI. FDA-approved anticancer drugs are available from the NCI at http://dtp.nci.nih.gov/branches/dscb/oncology_drugset_explanation.html. Drugs and investigational agents were >95% pure by proton nuclear magnetic resonance (NMR) and liquid chromatography/mass spectrometry (LC/MS). Stock solutions were prepared at 400x in DMSO, stored at -70 degrees C, and diluted in fresh medium prior to their use. The final concentration of DMSO in cell culture wells never exceeded 0.25% (v/v). The FDA-approved anticancer drug set is available from the Developmental Therapeutics Program at https://dtp.cancer.gov/organization/dscb/obtaining/available_plates.htm. All drugs and investigational agents were tested over a range starting from a high concentration at or near the clinical Cmax and decreasing in half-log increments. If the clinical Cmax for an agent had not been determined, the highest concentration tested was 10 microM.
Cell Lines. The patient-derived cancer cell (PDC) lines: 292921-168-R-J2-PDC, K24384-001-R-PDC, and 521955-158-R2-J5-PDC pancreatic carcinomas, 556581-035-R-J1 ovarian carcinoma, 324938-238-R-J1-PDC, 855422-203-R-J1-PDC and 883617-216-R-J1-PDC urothelial bladder carcinomas, 743489-274-T-PDC renal cell carcinoma, 138582-R-J1 Merkel cell tumor, K60290-347-R-J1 and K57222-313-R-J1-PDC glioblastomas, 653999-131-R-J2-PDC, LG0703-F948-PDC, and 349418-098-R-PDC non-small cell lung carcinomas, 885512-296-R-J2-PDC, 171881-019-R-J1-PDC breast carcinomas and 186277-243-T-J2-PDC and 233499-124-R-J2-PDC colon carcinomas were obtained from the NCI Patient-Derived Models Repository (PDMR, https://pdmr.cancer.gov). The established cell lines NCI/ADR-RES (RRID:CVCL_14520 and OVCAR-5 (RRID:CVCL_1628) ovarian carcinomas, 786-O (RRID:CVCL_1051) and A498 (RRID:CVCL_A498) renal cell carcinoma, NCI-H211 (ATCC, cat. CRL-5824; RRID:CVCL_1529), NCI-H196 (ATCC, cat. CRL-5823, RRID:CVCL_1509), SW 1271 (ATCC, cat. CRL-2177, RRID:CVCL_1716) and NCI-H1876 (ATCC, cat. CRL-5902, RRID:CVCL_1503) small cell lung carcinomas, MDA-MB-231 (RRID:CVCL_0062) and MDA-MB-468 (RRID:CVCL_0419)breast carcinomas (10-12). Pooled donor human umbilical vein endothelial cells (HUVEC, Lonza, cat. CC-2519) and human mesenchymal stem cells (hMSC, Lonza, cat. PT-2501) were purchased from Lonza (Walkersville, MD).
Cell Culture. All cells were maintained in an incubator at 37 degrees C and 5% CO2 with 95% humidity. The PDC lines were cultured according to standard operating procedures established by the NCI PDMR (https://pdmr.cancer.gov). Briefly all PDCs were thawed and cultured in Matrigel-coated flasks prepared with a working solution of 1X Ham's F-12 nutrient mix, without supplementation (Invitrogen, Waltham, MA, cat. 11765054), 100 U/mL penicillin-streptomycin (Invitrogen, cat. 15140122), and 2.5% Matrigel (Corning Inc., Corning, NY, cat. 354248) for the first three passages. […]

Structures are written as SMILES. Several values for one entry are separate records, joined by “and”; a condition that tells them apart may be missing. Equal values may be shown once.

For `Cn1ncnc1C1c2n[nH]c(=O)c3cc(F)cc(c23)NC1c1ccc(F)cc1` (configuration not stated), the IC50 was over 100 nM. Where the note is “compound 0.000316 µM”, the viability, T/C was 91% and 96.8%. Besides, the viability, T/C (compound 0.001 µM) is 95.8% and 101%. The viability, T/C (compound 0.00316 µM) was 84.4% and 94.8%. Under “compound 0.01 µM”, the viability, T/C is 85.8% and 78.8%. Further, where the note is “compound 0.0316 µM”, the viability, T/C is 78.8% and 65.3%. Moreover, for the setting “compound 0.1 µM”, the viability, T/C was 74.7% and 72.4%.
Turning to `NS(=O)(=O)OCC1CC(n2ccc3c(NC4CCc5ccccc54)ncnc32)CC1O` (configuration not stated), the IC50 is 230 nM and 79.9 nM. The viability, T/C (compound 0.00949 µM) is 140% and 117%. In addition, under “compound 0.03 µM”, the viability, T/C was 119% and 91%. Also, where the note is “compound 0.0949 µM”, the viability, T/C is 71.6% and 43.9%. Moreover, the viability, T/C (compound 0.3 µM) was 43.7% and 22.5%. For the same compound, the viability, T/C (compound 0.949 µM) is 37.5% and 26.5%. Also, the viability, T/C (compound 3 µM) was 34.5% and 26.1%.
For the compound `Nc1ccccc1NC(=O)c1ccc(CNC(=O)OCc2cccnc2)cc1`, the IC50 is 53.2 nM and 31.4 nM. In addition, for the setting “compound 0.00949 µM”, the viability, T/C was 81.5% and 86.7%. Besides, the viability, T/C (compound 0.03 µM) is 56.5% and 52.2%. The viability, T/C (compound 0.0949 µM) is 39.4% and 21.1%. The viability, T/C (compound 0.3 µM) was 28.1% and 12.2%. Where the note is “compound 0.949 µM”, the viability, T/C was 15.4% and 4.07%. Moreover, the viability, T/C (compound 3 µM) was 3.56% and 0.18%.
In the case of `Nc1ccn(C2OC(CO)C(O)C2(F)F)c(=O)n1` (configuration not stated), the IC50 is under 0.949 nM. Moreover, the viability, T/C (compound 0.000949 µM) is 20.4% and 39.3%. Also, the viability, T/C (compound 0.003 µM) is 17.2% and 31%. In addition, the viability, T/C (compound 0.00949 µM) is 15.5% and 19.9%. The viability, T/C (compound 0.03 µM) was 12.6% and 17.8%. Besides, the viability, T/C (compound 0.0949 µM) was 8.77% and 15.2%. Moreover, the viability, T/C (compound 0.3 µM) was 5.47% and 14%.
Take `Nc1ncn(C2CC(O)C(CO)O2)c(=O)n1` (configuration not stated): the IC50 was over 1000 nM. Besides, the viability, T/C (compound 0.00316 µM) was 99.5% and 83.9%. The viability, T/C (compound 0.01 µM) was 95.3% and 91.9%. The viability, T/C (compound 0.0316 µM) is 83.2% and 87.7%. In addition, the viability, T/C (compound 0.1 µM) was 75.1% and 78.5%. For the same compound, the viability, T/C (compound 0.316 µM) was 64.4% and 69.5%. Also, the viability, T/C (compound 1 µM) is 53.7% and 56.2%.
In the case of `Nc1ncn(C2CC(O)C(CO)S2)c(=O)n1` (configuration not stated), the IC50 was 14.8 nM and 8.3 nM. Moreover, under “compound 0.000949 µM”, the viability, T/C is 90.3% and 85%. The viability, T/C (compound 0.003 µM) is 72.3% and 68.7%. Besides, the viability, T/C (compound 0.00949 µM) is 61% and 45.8%. For the same compound, where the note is “compound 0.03 µM”, the viability, T/C was 37.2% and 31.3%. Where the note is “compound 0.0949 µM”, the viability, T/C is 20.2% and 19.9%. For the setting “compound 0.3 µM”, the viability, T/C was 11.1% and 9.34%.
As to `O=C(C=Cc1cccc(S(=O)(=O)Nc2ccccc2)c1)NO`, the IC50 is 81.6 nM and 30.6 nM. Moreover, where the note is “compound 0.00949 µM”, the viability, T/C is 82.2% and 70.1%. Further, where the note is “compound 0.03 µM”, the viability, T/C is 62.3% and 50.3%. The viability, T/C (compound 0.0949 µM) was 52.9% and 31.3%. Also, for the setting “compound 0.3 µM”, the viability, T/C is 24.5% and 17.3%. The viability, T/C (compound 0.949 µM) is 13.2% and 0.72%.
Consider `O=C(C=Cn1cnc(-c2cc(C(F)(F)F)cc(C(F)(F)F)c2)n1)NNc1cnccn1`, for which the IC50 is 5.04 nM and < 3.16 nM. In addition, the viability, T/C (compound 0.00316 µM) is 61.8% and 35.1%. Also, under “compound 0.01 µM”, the viability, T/C is 32.6% and 31.3%. Where the note is “compound 0.0316 µM”, the viability, T/C is 11.5% and 11.8%. For the same compound, for the setting “compound 0.1 µM”, the viability, T/C was 9.25% and 3.52%. The viability, T/C (compound 0.316 µM) was 10.8% and 3.53%. For the same compound, the viability, T/C (compound 1 µM) was 5.27% and 4.37%.
Turning to `O=C(c1cc(Cc2n[nH]c(=O)c3ccccc23)ccc1F)N1CCN(C(=O)C2CC2)CC1`, the IC50 is > 10000 nM and 3920 nM. The viability, T/C (compound 0.0316 µM) was 92.4% and 88.5%. Under “compound 0.1 µM”, the viability, T/C is 97.9% and 79.2%. Further, the viability, T/C (compound 0.316 µM) is 85.6% and 79.3%. For the same compound, the viability, T/C (compound 1 µM) is 72.1% and 69.9%. Also, the viability, T/C (compound 3.16 µM) was 68.6% and 53.2%. For the setting “compound 10 µM”, the viability, T/C was 56.6% and 32.6%.

As a reminder, the viability, T/C is the result in the treated group divided by that in the control group, in per cent. By IC50 is commonly meant the concentration that inhibits the measured activity by half.
